We go through 7 compounds from patent US20230143604A1, “QW DOSING OF GIP RECEPTOR AGONIST PEPTIDE COMPOUNDS AND USES THEREOF” (TAKEDA PHARMACEUTICAL COMPANY LIMITED, priority 2020, published 2023).

The structures appear in SMILES notation. Like-named read-outs stand apart in the source and are kept apart here.

One data set has as its system C57BL/6J mice. Briefly: Oral glucose tolerance test (OGTT). In kind it is in vivo. The following applies: 3 nmol/kg s.c., 24 hours before glucose loading. The protocol: An oral glucose tolerance test (OGTT) was carried out using C57BL/6J mice with a 50% dextrose solution dosed at 5 ml/kg. Testing concentrations of 0.1 nmol/kg, 0.3 nmmol/kg, 3 nmol/kg or 10 nmol/kg were selected depending on the peptide. Each peptide or a vehicle (control group) was subcutaneously administered 24 hours (unless shown otherwise) before glucose loading and the blood glucose was measured at 0, 15, 30, and 60 minutes after glucose dosing.
% inhibition=(1−(AUC cpd−AUC naïve/AUC veh−AUC naïve))×100.

A short description of data set [1]: Solubility in phosphate buffer pH 7.4. In outline:
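3 mg of peptide treated with 100 μL portions of 200 mM phosphate buffer pH 7.4, sonicating/vortexing up to 1 min, with further buffer added until fully dissolved. Solubility then quantified by HPLC.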

A further data set has as its target T1, human GLP-1R (Homo sapiens, UniProt P43220).
T1 construct: HEK-293T cells overexpressing full-length human GLP-1R; FLAG (N); host or cells: HEK-293T
Briefly: Human GLP1R agonist activity, intracellular cAMP accumulation. It is filed as cell-based. The following applies: HEK-293T cells overexpressing human GLP-1R, 1 hr. In outline:
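Frozen assay-ready cells washed and resuspended at 4×10^5 cells/mL in Krebs Ringer buffer, then incubated with compound 1 hr at room temperature in the dark. cAMP read by HTRF (anti-cAMP antibody, d2-cAMP tracer). Normalised to 1 nm GLP-1 (100%) and DMSO (0%).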

[2] abbreviates: read-out: Human GLP1R cAMP EC50, HEK293T.

T1 sequence (P43220 24-463): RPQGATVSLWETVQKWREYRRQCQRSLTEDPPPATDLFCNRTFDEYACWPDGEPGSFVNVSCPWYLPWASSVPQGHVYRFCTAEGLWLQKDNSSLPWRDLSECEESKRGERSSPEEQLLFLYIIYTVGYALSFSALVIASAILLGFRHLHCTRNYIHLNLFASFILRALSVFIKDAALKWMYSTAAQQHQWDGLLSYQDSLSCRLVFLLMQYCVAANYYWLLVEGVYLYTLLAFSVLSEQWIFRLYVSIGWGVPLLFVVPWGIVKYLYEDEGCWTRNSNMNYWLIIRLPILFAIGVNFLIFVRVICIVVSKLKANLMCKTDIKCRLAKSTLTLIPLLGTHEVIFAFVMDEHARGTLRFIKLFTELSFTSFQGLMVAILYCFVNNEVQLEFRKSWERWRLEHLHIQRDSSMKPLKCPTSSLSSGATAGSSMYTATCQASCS

Take `CC[C@H](C)[C@H](NC(=O)[C@H](CO)NC(=O)[C@H](Cc1ccc(O)cc1)NC(=O)[C@H](CC(=O)O)NC(=O)[C@H](CO)NC(=O)[C@@H](NC(=O)[C@H](Cc1ccccc1)NC(=O)[C@@H](NC(=O)CNC(=O)[C@H](CCC(=O)O)NC(=O)C(C)(C)NC(=O)[C@H](Cc1ccc(O)cc1)NC)[C@@H](C)O)[C@@H](C)CC)C(=O)N[C@@H](C)C(=O)N[C@@H](CC(C)C)C(=O)N[C@@H](CC(=O)O)C(=O)N[C@@H](CCCNC(=N)N)C(=O)N[C@@H](CCCCNC(=O)CNC(=O)CNC(=O)CNC(=O)CNC(=O)CNC(=O)CCCCCCCCCCCCCCCCC(=O)O)C(=O)N[C@@H](C)C(=O)N[C@@H](CCC(N)=O)C(=O)NC(C)(C)C(=O)N[C@@H](CC(=O)O)C(=O)N[C@@H](Cc1ccccc1)C(=O)N[C@H](C(=O)N[C@@H](CC(N)=O)C(=O)N[C@@H](Cc1c[nH]c2ccccc12)C(=O)N[C@@H](CC(C)C)C(=O)N[C@@H](CC(C)C)C(=O)N[C@@H](C)C(=O)N[C@@H](CCC(N)=O)C(=O)N[C@@H](CO)C(=O)N1CCC[C@H]1C(=O)N[C@@H](CO)C(=O)N[C@@H](CO)C(=O)NCC(=O)N[C@@H](C)C(=O)N1CCC[C@H]1C(=O)N1CCC[C@H]1C(=O)N1CCC[C@H]1C(=O)N[C@@H](CO)C(=O)O)C(C)C` [Compound 52]: the “Oral Glucose Tolerance Test Percent decrease in blood glucose AUC (%) over 60 mins” value in the data set on C57BL/6J mice was 65% (3 nmol/kg). For the same compound, the solubility in data set [1] (pH 7.4, aqueous buffer, pH 7.4 Phosphate Buffer - Solubility, 200 mM Phosphate buffer pH 7.4) was no less than 30 mg/mL; in data set [1] (pH 7.4, solubility in phosphate buffer at pH 7.4, 200 mM phosphate buffer pH 7.4), no less than 15 mg/mL. In addition, at human GLP-1R (Human GLP1R cAMP EC50, HEK293T (nM)), a half-maximal response (EC50) required 17 nM.

For `CC[C@H](C)[C@H](NC(=O)[C@H](Cc1ccccc1)NC(=O)[C@@H](NC(=O)CNC(=O)[C@H](CCC(=O)O)NC(=O)C(C)(C)NC(=O)[C@H](Cc1ccc(O)cc1)NC)[C@@H](C)O)C(=O)N[C@@H](CO)C(=O)N[C@@H](CC(=O)O)C(=O)N[C@@H](Cc1ccc(O)cc1)C(=O)N[C@@H](CO)C(=O)N[C@H](C(=O)NC(C)(C)C(=O)N[C@@H](CCCCNC(=O)CNC(=O)CNC(=O)CNC(=O)CNC(=O)CNC(=O)CCCCCCCCCCCCCCCCC(=O)O)C(=O)N[C@@H](CC(=O)O)C(=O)N[C@@H](CCCNC(=N)N)C(=O)NC(C)(C)C(=O)N[C@@H](C)C(=O)N[C@@H](CCC(N)=O)C(=O)NC(C)(C)C(=O)N[C@@H](CC(=O)O)C(=O)N[C@@H](Cc1ccccc1)C(=O)N[C@H](C(=O)N[C@@H](CC(N)=O)C(=O)N[C@@H](Cc1c[nH]c2ccccc12)C(=O)N[C@@H](CC(C)C)C(=O)N[C@@H](CC(C)C)C(=O)N[C@@H](C)C(=O)N[C@@H](CCC(N)=O)C(=O)N[C@@H](CO)C(=O)NCC(=O)O)C(C)C)[C@@H](C)CC` [Compound 53], the “Oral Glucose Tolerance Test Percent decrease in blood glucose AUC (%) over 60 mins” value in the data set on C57BL/6J mice is listed as 59% (3 nmol/kg). Further, the solubility in data set [1] (pH 7.4) is no less than 15 mg/mL; in data set [1] (pH 7.4, aqueous buffer), no less than 30 mg/mL. For the same compound, the concentration giving a half-maximal response (EC50) on human GLP-1R (setting [2]) was 47.9 nM.

As for `CC[C@H](C)[C@H](NC(=O)[C@H](Cc1ccccc1)NC(=O)[C@@H](NC(=O)CNC(=O)[C@H](CCC(=O)O)NC(=O)C(C)(C)NC(=O)[C@H](Cc1ccc(O)cc1)NC)[C@@H](C)O)C(=O)N[C@@H](CO)C(=O)N[C@@H](CC(=O)O)C(=O)N[C@@H](Cc1ccc(O)cc1)C(=O)N[C@@H](CO)C(=O)N[C@H](C(=O)NC(C)(C)C(=O)N[C@@H](CC(C)C)C(=O)N[C@@H](CC(=O)O)C(=O)N[C@@H](CO)C(=O)N[C@@H](CCCCNC(=O)CNC(=O)CNC(=O)CNC(=O)CNC(=O)CNC(=O)CNC(=O)CCCCCCCCCCCCCCCCC(=O)O)C(=O)N[C@@H](C)C(=O)N[C@@H](CCC(N)=O)C(=O)NC(C)(C)C(=O)N[C@@H](CC(=O)O)C(=O)N[C@@H](Cc1ccccc1)C(=O)N[C@H](C(=O)N[C@@H](CC(N)=O)C(=O)N[C@@H](Cc1c[nH]c2ccccc12)C(=O)N[C@@H](CC(C)C)C(=O)N[C@@H](CC(C)C)C(=O)N[C@@H](C)C(=O)N[C@@H](CCC(N)=O)C(=O)N[C@@H](CCCNC(=N)N)C(=O)NCC(=O)O)C(C)C)[C@@H](C)CC` [Compound 64], in the data set with C57BL/6J mice, the “Oral Glucose Tolerance Test Percent decrease in blood glucose AUC (%) over 60 mins” value is 53% (3 nmol/kg). The solubility was no less than 15 mg/mL in data set [1] (pH 7.4) and no less than 30 mg/mL in data set [1] (pH 7.4, aqueous buffer). Further, on human GLP-1R (setting [2]), the EC50 is 110 nM.

As to `CC[C@H](C)[C@H](NC(=O)[C@H](CO)NC(=O)[C@H](Cc1ccc(O)cc1)NC(=O)[C@H](CC(=O)O)NC(=O)[C@H](CO)NC(=O)[C@@H](NC(=O)[C@H](Cc1ccccc1)NC(=O)[C@@H](NC(=O)CNC(=O)[C@H](CCC(=O)O)NC(=O)C(C)(C)NC(=O)[C@H](Cc1ccc(O)cc1)NC)[C@@H](C)O)[C@@H](C)CC)C(=O)N[C@@H](C)C(=O)N[C@@H](CCCCNC(=O)CNC(=O)CNC(=O)CNC(=O)CNC(=O)CNC(=O)CCCCCCCCCCCCCCCCC(=O)O)C(=O)N[C@@H](CC(=O)O)C(=O)N[C@@H](CCCNC(=N)N)C(=O)NC(C)(C)C(=O)N[C@@H](C)C(=O)N[C@@H](CCC(N)=O)C(=O)NC(C)(C)C(=O)N[C@@H](CC(=O)O)C(=O)N[C@@H](Cc1ccccc1)C(=O)N[C@H](C(=O)N[C@@H](CC(N)=O)C(=O)N[C@@H](Cc1c[nH]c2ccccc12)C(=O)N[C@@H](CC(C)C)C(=O)N[C@@H](CC(C)C)C(=O)N[C@@H](C)C(=O)N[C@@H](CCC(N)=O)C(=O)N[C@@H](CCCCNC(C)=O)C(=O)NCC(=O)O)C(C)C` [Compound 81], the “Oral Glucose Tolerance Test Percent decrease in blood glucose AUC (%) over 60 mins” value in the data set with C57BL/6J mice is 66% (3 nmol/kg). Moreover, the solubility in data set [1] (pH 7.4) is no less than 15 mg/mL; in data set [1] (pH 7.4, aqueous buffer) it was no less than 30 mg/mL. Besides, the EC50 at human GLP-1R (setting [2]) is 33.9 nM.

As for `CC[C@H](C)[C@H](NC(=O)[C@H](CO)NC(=O)[C@H](Cc1ccc(O)cc1)NC(=O)[C@H](CC(=O)O)NC(=O)[C@H](CO)NC(=O)[C@@H](NC(=O)[C@H](Cc1ccccc1)NC(=O)[C@@H](NC(=O)CNC(=O)[C@H](CCC(=O)O)NC(=O)C(C)(C)NC(=O)[C@H](Cc1ccc(O)cc1)NC)[C@@H](C)O)[C@@H](C)CC)C(=O)N[C@@H](C)C(=O)N[C@@H](CCCCNC(=O)CNC(=O)CNC(=O)CNC(=O)CNC(=O)CNC(=O)CCCCCCCCCCCCCCCCC(=O)O)C(=O)N[C@@H](CC(=O)O)C(=O)N[C@@H](CCCNC(=N)N)C(=O)NC(C)(C)C(=O)N[C@@H](C)C(=O)N[C@@H](CCC(N)=O)C(=O)NC(C)(C)C(=O)N[C@@H](CC(=O)O)C(=O)N[C@@H](Cc1ccccc1)C(=O)N[C@H](C(=O)N[C@@H](CC(N)=O)C(=O)N[C@@H](Cc1c[nH]c2ccccc12)C(=O)N[C@@H](CC(C)C)C(=O)N[C@@H](CC(C)C)C(=O)N[C@@H](C)C(=O)N[C@@H](CCC(N)=O)C(=O)N[C@@H](CCC(N)=O)C(=O)NCC(=O)O)C(C)C` [Compound 82], in the data set with C57BL/6J mice, the “Oral Glucose Tolerance Test Percent decrease in blood glucose AUC (%) over 60 mins” value was 72% (3 nmol/kg). Further, the solubility was no less than 15 mg/mL in data set [1] (pH 7.4) and no less than 30 mg/mL in data set [1] (pH 7.4, aqueous buffer). Also, at human GLP-1R (setting [2]), the EC50 was determined as 17.4 nM.

Take `CC[C@H](C)[C@H](NC(=O)[C@H](Cc1ccccc1)NC(=O)[C@@H](NC(=O)CNC(=O)[C@H](CCC(=O)O)NC(=O)C(C)(C)NC(=O)[C@H](Cc1ccc(O)cc1)NC)[C@@H](C)O)C(=O)N[C@@H](CO)C(=O)N[C@@H](CC(=O)O)C(=O)N[C@@H](Cc1ccc(O)cc1)C(=O)N[C@@H](CO)C(=O)N[C@H](C(=O)NC(C)(C)C(=O)N[C@@H](CCCCNC(=O)CNC(=O)CNC(=O)CNC(=O)CNC(=O)CNC(=O)CCCCCCCCCCCCCCCCC(=O)O)C(=O)N[C@@H](CC(=O)O)C(=O)N[C@@H](CCCNC(=N)N)C(=O)NC(C)(C)C(=O)N[C@@H](C)C(=O)N[C@@H](CCC(N)=O)C(=O)NC(C)(C)C(=O)N[C@@H](CC(=O)O)C(=O)N[C@@H](Cc1ccccc1)C(=O)N[C@H](C(=O)N[C@@H](CC(N)=O)C(=O)N[C@@H](Cc1c[nH]c2ccccc12)C(=O)N[C@@H](CC(C)C)C(=O)N[C@@H](CC(C)C)C(=O)N[C@@H](C)C(=O)N[C@@H](CCC(N)=O)C(=O)N[C@@H](CO)C(=O)N1CCC[C@H]1C(=O)NCC(=O)O)C(C)C)[C@@H](C)CC` [Compound 83]: the “Oral Glucose Tolerance Test Percent decrease in blood glucose AUC (%) over 60 mins” value in the data set with C57BL/6J mice is 68% (3 nmol/kg). The solubility in data set [1] (pH 7.4) was no less than 15 mg/mL; in data set [1] (pH 7.4, aqueous buffer), no less than 30 mg/mL. Also, the EC50 on human GLP-1R (setting [2]) was determined as 66.1 nM.

For the compound `CC[C@H](C)[C@H](NC(=O)[C@H](Cc1ccccc1)NC(=O)[C@@H](NC(=O)CNC(=O)[C@H](CCC(=O)O)NC(=O)C(C)(C)NC(=O)[C@H](Cc1ccc(O)cc1)NC)[C@@H](C)O)C(=O)N[C@@H](CO)C(=O)N[C@@H](CC(=O)O)C(=O)N[C@@H](Cc1ccc(O)cc1)C(=O)N[C@@H](CO)C(=O)N[C@H](C(=O)NC(C)(C)C(=O)N[C@@H](CC(C)C)C(=O)N[C@@H](CC(=O)O)C(=O)N[C@@H](CCCNC(=N)N)C(=O)N[C@@H](CCCCNC(=O)CNC(=O)CNC(=O)CNC(=O)CNC(=O)CNC(=O)CCCCCCCCCCCCCCCCC(=O)O)C(=O)N[C@@H](C)C(=O)N[C@@H](CCC(N)=O)C(=O)NC(C)(C)C(=O)N[C@@H](CC(=O)O)C(=O)N[C@@H](Cc1ccccc1)C(=O)N[C@H](C(=O)N[C@@H](CC(N)=O)C(=O)N[C@@H](Cc1c[nH]c2ccccc12)C(=O)N[C@@H](CC(C)C)C(=O)N[C@@H](CC(C)C)C(=O)N[C@@H](C)C(=O)N[C@@H](CCC(N)=O)C(=O)N[C@@H](CO)C(=O)N1CCC[C@H]1C(=O)NCC(=O)O)C(C)C)[C@@H](C)CC` [Compound 88], the “Oral Glucose Tolerance Test Percent decrease in blood glucose AUC (%) over 60 mins” value in the data set with C57BL/6J mice is given as 64% (3 nmol/kg). In addition, the solubility in data set [1] (pH 7.4) is no less than 15 mg/mL; in data set [1] (pH 7.4, aqueous buffer), no less than 30 mg/mL. The EC50 at human GLP-1R (setting [2]) was 13.5 nM.
